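All cell lines were grown in 96-well plates and treated with compound for 48 hours. Here, GI50 denotes the concentration required for 50% inhibition of growth.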 Calls of active or inactive are those of the source. No stated cut-off is given here; in the data, active = GI50 up to about 1.1 µM and inactive = higher.
Tests used:
Test in all cases: NCI anticancer screen, dose series, 48 h
[1] = test system: NCI-H23
[2] = test system: K562
[3] = test system: SK-MEL-5
[4] = test system: SK-OV-3
[5] = test system: Hs-578T
[6] = test system: KM12
[7] = test system: SF-539
[8] = test system: A549
[9] = test system: RXF 393
[10] = test system: HCT-116
[11] = test system: CAKI-1
[12] = test system: DU-145
[13] = test system: CCRF-CEM
[14] = test system: MDA-MB-231
[15] = test system: TK-10
[16] = test system: NCI-H460
[17] = test system: COLO 205
[18] = test system: MOLT-4
[19] = test system: HCT-15
[20] = test system: T47D

Compound	GI50 [1]	GI50 [2]	GI50 [3]	GI50 [4]	GI50 [5]	GI50 [6]	GI50 [7]	GI50 [8]	GI50 [9]	GI50 [10]	GI50 [11]	GI50 [12]	GI50 [13]	GI50 [14]	GI50 [15]	GI50 [16]	GI50 [17]	GI50 [18]	GI50 [19] [µM]	GI50 [20]
COC(=O)Cc1c(C(=O)CC(C)(C)n2cnc(CCN3C(=O)CCC3=O)c2)[nH]c2ccccc12	> 100 µM (inactive)	> 100 µM (inactive)	> 100 µM (inactive)	> 100 µM (inactive)	> 100 µM (inactive)	> 100 µM (inactive)	> 100 µM (inactive)	> 100 µM (inactive)	15.4 µM (inactive)	> 100 µM (inactive)	> 100 µM (inactive)	> 100 µM (inactive)	> 100 µM (inactive)	> 100 µM (inactive)	> 100 µM (inactive)	> 100 µM (inactive)	> 100 µM (inactive)	> 100 µM (inactive)	> 100	
c1ccc(Cc2nc(Cc3n[nH]c(Cc4ccccc4)n3)n[nH]2)cc1	> 100 µM (inactive)	> 100 µM (inactive)	> 100 µM (inactive)	> 100 µM (inactive)	11.8 µM (inactive)	> 100 µM (inactive)	> 100 µM (inactive)	> 100 µM (inactive)	> 100 µM (inactive)	> 100 µM (inactive)		> 100 µM (inactive)	> 100 µM (inactive)	> 100 µM (inactive)	> 100 µM (inactive)		> 100 µM (inactive)	> 100 µM (inactive)	> 100	
COC(=O)C(=O)C(C(=O)C(=O)Nc1ccc(C)cc1C)c1nc2ccc(Cl)cc2nc1O (configuration not stated)	> 100 µM (inactive)		> 100 µM (inactive)	> 100 µM (inactive)	> 100 µM (inactive)	> 100 µM (inactive)	> 100 µM (inactive)	> 100 µM (inactive)	> 100 µM (inactive)	> 100 µM (inactive)	> 100 µM (inactive)	> 100 µM (inactive)	> 100 µM (inactive)	> 100 µM (inactive)	> 100 µM (inactive)	> 100 µM (inactive)	> 100 µM (inactive)	> 100 µM (inactive)	> 100	
CCCCC/C(=N\c1[nH]cnc1C(N)=O)OCC	> 100 µM (inactive)	> 100 µM (inactive)	> 100 µM (inactive)	> 100 µM (inactive)	> 100 µM (inactive)	> 100 µM (inactive)	> 100 µM (inactive)	> 100 µM (inactive)	> 100 µM (inactive)	> 100 µM (inactive)	> 100 µM (inactive)	> 100 µM (inactive)	> 100 µM (inactive)	> 100 µM (inactive)	> 100 µM (inactive)	> 100 µM (inactive)	> 100 µM (inactive)	> 100 µM (inactive)	> 100	
Cc1cccc(/C(Br)=C2/OC(=O)c3ccccc32)c1	> 100 µM (inactive)		> 100 µM (inactive)	> 100 µM (inactive)	> 100 µM (inactive)	> 100 µM (inactive)	> 100 µM (inactive)	> 100 µM (inactive)	> 100 µM (inactive)	> 100 µM (inactive)	> 100 µM (inactive)	> 100 µM (inactive)	> 100 µM (inactive)		> 100 µM (inactive)	> 100 µM (inactive)	> 100 µM (inactive)	> 100 µM (inactive)	> 100	
CS/C(=N\c1nccs1)NC(=O)c1cccc(Cl)c1	> 100 µM (inactive)	> 100 µM (inactive)	> 100 µM (inactive)	> 100 µM (inactive)		> 100 µM (inactive)	> 100 µM (inactive)	> 100 µM (inactive)	> 100 µM (inactive)	> 100 µM (inactive)	50.5 µM (inactive)		72.6 µM (inactive)		73.5 µM (inactive)	> 100 µM (inactive)	46.1 µM (inactive)	31 µM (inactive)	24.9	
COc1cc([C@@H]2c3cc4c(cc3[C@@H](NC(=O)c3cccc(F)c3)C3COC(=O)[C@@H]32)OCO4)cc(OC)c1O (some centres not stated)	0.522 µM (active)	1.61 µM (inactive)	1.14 µM (inactive)	1.26 µM (inactive)		1.76 µM (inactive)	0.356 µM (active)	0.0327 µM (active)	4.3 µM (inactive)	1.76 µM (inactive)	0.646 µM (active)		0.111 µM (active)		3.35 µM (inactive)	< 0.01 µM (active)	3.52 µM (inactive)	< 0.01 µM (active)	1.45	
COC(=O)C1(O)c2ccccc2N=C2C1CCN2C (configuration not stated)	> 100 µM (inactive)	> 100 µM (inactive)	> 100 µM (inactive)	> 100 µM (inactive)		> 100 µM (inactive)	> 100 µM (inactive)	> 100 µM (inactive)	> 100 µM (inactive)	> 100 µM (inactive)	> 100 µM (inactive)		> 100 µM (inactive)		> 100 µM (inactive)	> 100 µM (inactive)	> 100 µM (inactive)	> 100 µM (inactive)	> 100	
Cn1nc(Cc2ccc(Cl)cc2)n(N)c1=O	> 100 µM (inactive)	> 100 µM (inactive)	> 100 µM (inactive)			> 100 µM (inactive)	> 100 µM (inactive)	> 100 µM (inactive)	> 100 µM (inactive)	> 100 µM (inactive)	> 100 µM (inactive)	> 100 µM (inactive)		> 100 µM (inactive)	> 100 µM (inactive)	> 100 µM (inactive)		> 100 µM (inactive)	> 100	> 100 µM (inactive)
C=C1C2C[C@@H]3O[C@H]4C[C@H]5O[C@@]6(C[C@@H]7O[C@]8(C[C@H](C)[C@@H]9O[C@@H]%10CC(C=O)O[C@@H]%10C[C@@H]9O8)C[C@H](C)[C@@H]7O6)C[C@H]5O[C@H]4[C@H](C)[C@H]3OC(=O)C[C@H]3CC[C@@H]4OC5[C@H]6O[C@]7(CC[C@H]8CC(=C)[C@H](CC[C@@H](C[C@H]1C)O2)O8)CC6O[C@@H]5[C@@H](O7)[C@H]4O3 (some centres not stated)	< 0.0001 µM (active)	< 0.0001 µM (active)	< 0.0001 µM (active)		< 0.0001 µM (active)	< 0.0001 µM (active)		< 0.0001 µM (active)	< 0.0001 µM (active)	< 0.0001 µM (active)	< 0.0001 µM (active)	< 0.0001 µM (active)		0.000229 µM (active)	0.00771 µM (active)	< 0.0001 µM (active)	< 0.0001 µM (active)	< 0.0001 µM (active)	< 0.0001	
O=C(COc1ccc(OCC(=O)N2C(=O)CC(=O)N(c3ccc(Cl)cc3)C2=S)cc1)N1C(=O)CC(=O)N(c2ccc(Cl)cc2)C1=S	25.8 µM (inactive)	19.4 µM (inactive)	29.7 µM (inactive)	35.4 µM (inactive)		15.7 µM (inactive)		22.6 µM (inactive)	31.6 µM (inactive)	10.1 µM (inactive)		31.6 µM (inactive)		27.9 µM (inactive)	37.3 µM (inactive)	29.2 µM (inactive)	18.2 µM (inactive)	17.9 µM (inactive)	24.3	
Cc1ccc(OC2CC(n3cnc4ncnc(Cl)c43)OC2Oc2ccc(C)cc2)cc1 (configuration not stated)	24.8 µM (inactive)		18.5 µM (inactive)	> 100 µM (inactive)	21.8 µM (inactive)	18.4 µM (inactive)	7.78 µM (inactive)	25.2 µM (inactive)		9.77 µM (inactive)	2.11 µM (inactive)	15.7 µM (inactive)		17.5 µM (inactive)	> 100 µM (inactive)	12.7 µM (inactive)	14.8 µM (inactive)	4.49 µM (inactive)	13.8	12.6 µM (inactive)
Nc1n[n+]([O-])c2cc([N+](=O)[O-])ccc2[n+]1[O-]	13.8 µM (inactive)	2.14 µM (inactive)	7.71 µM (inactive)	10.5 µM (inactive)	11 µM (inactive)		4.74 µM (inactive)	18.9 µM (inactive)		2.9 µM (inactive)	4.33 µM (inactive)	16.3 µM (inactive)	1.62 µM (inactive)	4.99 µM (inactive)	30.2 µM (inactive)	3.31 µM (inactive)	3.85 µM (inactive)	0.787 µM (active)	3.14	3.95 µM (inactive)
CC(C)(C)C1=CC(O)(c2c3ccccc3c(C3(O)C=C(C(C)(C)C)C(=O)C(C(C)(C)C)=C3)c3ccccc23)C=C(C(C)(C)C)C1=O	> 100 µM (inactive)	81.8 µM (inactive)	> 100 µM (inactive)	> 100 µM (inactive)	> 100 µM (inactive)	> 100 µM (inactive)	> 100 µM (inactive)	> 100 µM (inactive)		> 100 µM (inactive)	> 100 µM (inactive)	> 100 µM (inactive)	50.2 µM (inactive)	27 µM (inactive)	> 100 µM (inactive)		> 100 µM (inactive)	48.2 µM (inactive)	> 100	> 100 µM (inactive)
Cn1c(=O)c2c(no[n+]2[O-])c2ccccc21	15 µM (inactive)	14.3 µM (inactive)	12.4 µM (inactive)	33 µM (inactive)	23.3 µM (inactive)	12.4 µM (inactive)	25.8 µM (inactive)	23.3 µM (inactive)	19.9 µM (inactive)	12.9 µM (inactive)	18.2 µM (inactive)		12.8 µM (inactive)	19.7 µM (inactive)	27.8 µM (inactive)	17.8 µM (inactive)	17.7 µM (inactive)	10.5 µM (inactive)	11.1	21.6 µM (inactive)

Reference: ChEMBL document CHEMBL1201862, “PubChem BioAssay data set” (2004)
